PubChem BioAssay AID258 (DTP/NCI, 2004)
Several values for one entry are separate records, joined by “and”; a condition that tells them apart may be missing. Identical values can stand only once. Toxic doses and inconclusive results are not listed.

Tested on: CD2F1 mice, L1210 leukemia sc, survival T/C
Assay: NCI In Vivo Anticancer Drug Screen. Data for tumor model L1210 Leukemia (subcutaneous) in CD2F1 (CDF1) mice
Details: endpoint: median survival time, higher = longer survival
Method in brief: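 Read-out: survival or tumor size. Value = treated (T) / vehicle control (C). Transplantable tumor in mice.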

In the case of CC(=O)Oc1ccc[nH]c1=O, the T/C (dose: 16.7 mg/kg/injection, schedule: Q03HX027 (ip), vehicle: saline with Tween-80) is reported as 107 % of control, the T/C (dose: 33.0 mg/kg/injection, schedule: Q03HX027 (ip), vehicle: saline with Tween-80) is reported as 104 % of control and the T/C (dose: 50.0 mg/kg/injection, schedule: Q01DX009 (ip), vehicle: saline with Tween-80) is reported as 98 % of control. The T/C (dose: 66.7 mg/kg/injection, schedule: Q03HX027 (ip), vehicle: saline with Tween-80) was 96 % of control, the T/C (dose: 100.0 mg/kg/injection, schedule: Q01DX009 (ip), vehicle: saline with Tween-80) was 98 % of control and the T/C (dose: 133.0 mg/kg/injection, schedule: Q03HX027 (ip), vehicle: saline with Tween-80) was 105 % of control. For the same compound, the T/C (dose: 200.0 mg/kg/injection, schedule: Q01DX009 (ip), vehicle: saline with Tween-80) was 98 % of control, the T/C (dose: 266.0 mg/kg/injection, schedule: Q03HX027 (ip), vehicle: saline with Tween-80) was 108 % of control and the T/C (dose: 800.0 mg/kg/injection, schedule: Q01DX009 (ip), vehicle: saline with Tween-80) was 117 % of control.
With O=P1(NCCCl)OCCCN1CCCl (stereo not drawn) the T/C (dose: 6.25 mg/kg/injection, schedule: Q01DX009 (ip), vehicle: saline) was 122 % of control, the T/C (dose: 6.25 mg/kg/injection, schedule: Q01DX009 (sc), vehicle: saline) was 116 % of control and the T/C (dose: 12.5 mg/kg/injection, schedule: Q01DX009 (ip), vehicle: saline) was 151 % of control. The T/C (dose: 25.0 mg/kg/injection, schedule: Q01DX009 (ip), vehicle: saline) was 161 % of control, the T/C (dose: 50.0 mg/kg/injection, schedule: Q01DX009 (ip), vehicle: saline) was 169 % of control and 188 % of control and the T/C (dose: 66.7 mg/kg/injection, schedule: Q01DX009 (ip), vehicle: saline) was 179 % of control. The T/C (dose: 66.7 mg/kg/injection, schedule: Q01DX009 (sc), vehicle: saline) was 197 % of control, the T/C (dose: 100.0 mg/kg/injection, schedule: Q01DX009 (ip), vehicle: saline) was 188 % of control and 235 % of control and the T/C (dose: 100.0 mg/kg/injection, schedule: Q01DX009 (sc), vehicle: saline) was 155 % of control and 182 % of control and 232 % of control. For the same compound, the T/C (dose: 133.4 mg/kg/injection, schedule: Q01DX009 (sc), vehicle: saline) was 265 % of control, the T/C (dose: 150.0 mg/kg/injection, schedule: Q01DX009 (ip), vehicle: saline) was 247 % of control and the T/C (dose: 150.0 mg/kg/injection, schedule: Q01DX009 (sc), vehicle: saline) was 258 % of control. For the same compound, the T/C (dose: 200.0 mg/kg/injection, schedule: Q01DX001 (sc), vehicle: water) was 187 % of control and 188 % of control, the T/C (dose: 300.0 mg/kg/injection, schedule: Q01DX001 (sc), vehicle: water) was 211 % of control and 217 % of control and the T/C (dose: 300.0 mg/kg/injection, schedule: Q01DX009 (sc), vehicle: saline) was 176 % of control. For the same compound, the T/C (dose: 400.0 mg/kg/injection, schedule: Q01DX001 (sc), vehicle: water) was 241 % of control, the T/C (dose: 400.0 mg/kg/injection, schedule: Q01DX009 (ip), vehicle: saline) was 98 % of control and the T/C (dose: 400.0 mg/kg/injection, schedule: Q01DX009 (sc), vehicle: saline) was 108 % of control. The T/C (dose: 500.0 mg/kg/injection, schedule: Q01DX001 (sc), vehicle: water) was 241 % of control and 244 % of control, the T/C (dose: 600.0 mg/kg/injection, schedule: Q01DX001 (sc), vehicle: water) was 300 % of control and 302 % of control and the T/C (dose: 700.0 mg/kg/injection, schedule: Q01DX001 (sc), vehicle: water) was 264 % of control and 290 % of control.
With O=c1[nH]c(=O)n(C2CC(O)C(CO)O2)cc1C(F)(F)F (stereo not drawn) the T/C (dose: 2.5 mg/kg/injection, schedule: Q01DX009 (ip), vehicle: saline with Tween-80) was 106 % of control, the T/C (dose: 5.0 mg/kg/injection, schedule: Q01DX009 (ip), vehicle: saline with Tween-80) was 114 % of control and the T/C (dose: 10.0 mg/kg/injection, schedule: Q01DX009 (ip), vehicle: saline with Tween-80) was 117 % of control and 121 % of control. For the same compound, the T/C (dose: 10.0 mg/kg/injection, schedule: Q01DX009 (sc), vehicle: saline) was 111 % of control and 122 % of control, the T/C (dose: 13.3 mg/kg/injection, schedule: Q01DX009 (sc), vehicle: saline with Tween-80) was 122 % of control and the T/C (dose: 20.0 mg/kg/injection, schedule: Q01DX009 (sc), vehicle: saline) was 111 % of control. The T/C (dose: 40.0 mg/kg/injection, schedule: Q01DX009 (ip), vehicle: saline with Tween-80) was 153 % of control, the T/C (dose: 40.0 mg/kg/injection, schedule: Q01DX009 (sc), vehicle: saline) was 118 % of control and 123 % of control and the T/C (dose: 60.0 mg/kg/injection, schedule: Q01DX009 (ip), vehicle: saline with Tween-80) was 156 % of control. For the same compound, the T/C (dose: 60.0 mg/kg/injection, schedule: Q01DX009 (sc), vehicle: saline with Tween-80) was 152 % of control, the T/C (dose: 80.0 mg/kg/injection, schedule: Q01DX009 (ip), vehicle: saline with Tween-80) was 150 % of control and the T/C (dose: 80.0 mg/kg/injection, schedule: Q01DX009 (sc), vehicle: saline with Tween-80) was 154 % of control. For the same compound, the T/C (dose: 90.0 mg/kg/injection, schedule: Q01DX009 (sc), vehicle: saline with Tween-80) was 167 % of control, the T/C (dose: 105.0 mg/kg/injection, schedule: Q01DX009 (sc), vehicle: saline with Tween-80) was 150 % of control and the T/C (dose: 120.0 mg/kg/injection, schedule: Q01DX009 (sc), vehicle: saline with Tween-80) was 158 % of control and 162 % of control. For the same compound, the T/C (dose: 135.0 mg/kg/injection, schedule: Q01DX009 (sc), vehicle: saline with Tween-80) was 162 % of control, the T/C (dose: 160.0 mg/kg/injection, schedule: Q01DX009 (ip), vehicle: saline with Tween-80) was 121 % of control and the T/C (dose: 160.0 mg/kg/injection, schedule: Q01DX009 (sc), vehicle: saline) was 120 % of control. For the same compound, the T/C (dose: 180.0 mg/kg/injection, schedule: Q01DX009 (sc), vehicle: saline with Tween-80) was 120 % of control, the T/C (dose: 180.0 mg/kg/injection, schedule: Q01DX009 (sc), vehicle: saline) was 161 % of control and the T/C (dose: 211.2 mg/kg/injection, schedule: Q01DX009 (sc), vehicle: saline with Tween-80) was 151 % of control. For the same compound, the T/C (dose: 240.0 mg/kg/injection, schedule: Q01DX009 (sc), vehicle: saline) was 158 % of control, the T/C (dose: 320.0 mg/kg/injection, schedule: Q01DX009 (ip), vehicle: saline with Tween-80) was 108 % of control and the T/C (dose: 320.0 mg/kg/injection, schedule: Q01DX009 (sc), vehicle: saline with Tween-80) was 156 % of control. For the same compound, the T/C (dose: 320.0 mg/kg/injection, schedule: Q01DX009 (sc), vehicle: saline) was 119 % of control and the T/C (dose: 960.0 mg/kg/injection, schedule: Q01DX009 (sc), vehicle: saline with Tween-80) was 122 % of control.
In the case of Nc1ncn(C2OC(CO)C(O)C2O)c(=O)n1 (stereo not drawn), the T/C (dose: 0.2 mg/kg/injection, schedule: Q01DX009 (ip), vehicle: saline) is reported as 97 % of control, the T/C (dose: 0.2 mg/kg/injection, schedule: Q01DX009 (sc), vehicle: saline) is reported as 102 % of control and the T/C (dose: 0.4 mg/kg/injection, schedule: Q01DX009 (ip), vehicle: saline) is reported as 113 % of control. The T/C (dose: 0.4 mg/kg/injection, schedule: Q01DX009 (sc), vehicle: saline) was 115 % of control and 119 % of control, the T/C (dose: 0.8 mg/kg/injection, schedule: Q01DX009 (sc), vehicle: saline) was 120 % of control and the T/C (dose: 1.07 mg/kg/injection, schedule: Q01DX009 (sc), vehicle: saline) was 158 % of control. For the same compound, the T/C (dose: 1.6 mg/kg/injection, schedule: Q01DX009 (ip), vehicle: saline) was 150 % of control, the T/C (dose: 2.1 mg/kg/injection, schedule: Q01DX009 (ip), vehicle: saline) was 178 % of control and the T/C (dose: 2.1 mg/kg/injection, schedule: Q01DX009 (sc), vehicle: saline) was 187 % of control. For the same compound, the T/C (dose: 7.2 mg/kg/injection, schedule: Q01DX009 (ip), vehicle: saline) was 206 % of control and 88 % of control, the T/C (dose: 9.6 mg/kg/injection, schedule: Q01DX009 (ip), vehicle: saline) was 113 % of control and the T/C (dose: 28.8 mg/kg/injection, schedule: Q01DX009 (sc), vehicle: saline) was 106 % of control.
